Measurements taken from patent US20240247048A1 (EMORY UNIVERSITY, priority 2021, published 2024).

Key:
PDAC patient T cells = assay: ex vivo 9-day expansion of PDAC patient peripheral blood T cells; format: cell-based, human
Description: (FIG. 17A) Representative western blot and (FIG. 17B) quantified expression levels of VPAC1 and VPAC2; and (FIG. 17C) PD-1 and CTLA-4 in lysates of healthy human T cells expanded with plate bound human anti-CD3 antibodies for 0, 3, 6, 12, 24, 48 and 72 hours. Lower molecular weight band of 25kD shown for VPAC2-specific expression as confirmed from our VPAC2 KO model. Percentage of (FIG. 17D) CD69 expression at 24 h post activation (FIG. 17E) phosphorylation of CREB (phospho-CREB) downstream of VPAC1/2 receptor at 6 h and in CD4+ and CD8+ T cells normalized to levels in control with no peptide. PDAC patient peripheral blood T cells were expanded for 9 days with plate bound human anti-CD3 antibodies+/−ANT008 and the (FIG. 17F) percentage of Tregs was quantified using the (FIG. 17G) gating strategy shown. […] Statistical differences in FIGS. 17D and 17E were calculated via repeated measures ANOVA followed by Dunnett's post-test where each sample in the treatment group was compared to the matched sample in the control group (scrambled treated). Statistical differences in FIGS. 17F, 17H, and 17I were calculated via paired student T-test. […]
Human T cell activation and expansion. […] Cells were counted using Trypan blue dye and phenotyped via flow cytometry on day 9. […]

[1] = tested on: phospho-CREB downstream of VPAC1/2 receptor; assay: phosphorylation of CREB in activated human T cells; format: cell-based; details: 6 h, 3 uM, compared with control scrambled peptide; FIG. 17e
Description: (FIG. 17A) Representative western blot and (FIG. 17B) quantified expression levels of VPAC1 and VPAC2; and (FIG. 17C) PD-1 and CTLA-4 in lysates of healthy human T cells expanded with plate bound human anti-CD3 antibodies for 0, 3, 6, 12, 24, 48 and 72 hours. Lower molecular weight band of 25kD shown for VPAC2-specific expression as confirmed from our VPAC2 KO model. Percentage of (FIG. 17D) CD69 expression at 24 h post activation (FIG. 17E) phosphorylation of CREB (phospho-CREB) downstream of VPAC1/2 receptor at 6 h and in CD4+ and CD8+ T cells normalized to levels in control with no peptide. PDAC patient peripheral blood T cells were expanded for 9 days with plate bound human anti-CD3 antibodies+/−ANT008 and the (FIG. 17F) percentage of Tregs was quantified using the (FIG. 17G) gating strategy shown. Percentage of PD1+, Tim-3+, Lag3+, PD1+Tim-3+, PD1+Lag3+ and PD1+Tim-3+Lag-3+(triple positive) in (FIG. 17H) CD4+ and (FIG. 17I) CD8+ subsets is shown. Statistical differences in FIGS. 17D and 17E were calculated via repeated measures ANOVA followed by Dunnett's post-test where each sample in the treatment group was compared to the matched sample in the control group (scrambled treated). Statistical differences in FIGS. 17F, 17H, and 17I were calculated via paired student T-test. Error bars show mean±SEM. […], **p<0.01 and ***p<0.001. […]

Sequence	T cells with an exhausted phenotype (co-expressing PD1 and Tim-3 or Lag-3) (PDAC patient T cells; CD4+ and CD8+ subsets, 9 days, FIG. 17h, 17i)	proportion of human Tregs (CD4+ CD25+ FoxP3+) (PDAC patient T cells; after 9 days of T cell expansion, FIG. 17f)	activation-induced phosphorylation of CREB [1]
KPRRPYTDNYTRLRKQMAVKKYLNLILN [ANT008]	significantly decreased	significantly decreased	
KPRRPYTSDYTRLRKQMAVKKYLNLILN [ANT308]			more potently inhibited
